Consider 11 compounds from PubChem BioAssay (NCI).

Common to all, as to test: NCI anticancer screen, dose series, 48 h
Experiment [1] deals with HCC-2998 colon.
The subject of experiment [2] is HL-60(TB) leukemia.
Experiment [3] relates to M14 melanoma.
Experiment [4] deals with NCI-H23 lung.
Experiment [5] concerns NCI-H460 lung.
For experiment [6], the system named is OVCAR-3 ovarian.
Experiment [7] has as its system RPMI-8226 leukemia.
In experiment [8] the test system is SF-539 CNS.
For experiment [9], the system named is SK-MEL-2 melanoma.
Experiment [10] concerns SK-MEL-28 melanoma.
The test system of experiment [11] is SN12C renal.
Experiment [12] has as its system SNB-75 CNS.

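Five concentrations, 48 hours, 96-well plates. At the TGI there is no net growth.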

With `O=C(N/N=C(/COc1ccccc1)N=Cc1ccncc1)c1ccncc1`, the TGI in [1], in experiment [2], in experiment [3], in [4], in experiment [5] and in experiment [6] was over 100 µM each time. The TGI in [7], in [8], in [9], in experiment [10], in experiment [11] and in [12] was over 100 µM each time.

`C/C(=C1/N=C(c2cc([N+](=O)[O-])ccc2Cl)N(c2ccc(Br)cc2)C1=O)c1ccc(N(CCC#N)CCC#N)cc1C`: the TGI in experiment [1] is 72.1 µM; in experiment [2], 36.3 µM; in [3], over 100 µM; in experiment [4], over 100 µM; in experiment [5], over 100 µM; in experiment [6] it was 99.7 µM. Further, the TGI was 77.2 µM in experiment [7]; over 100 µM in experiment [8]; over 100 µM in [9]; over 100 µM in experiment [10]; over 100 µM in experiment [11]; over 100 µM in experiment [12].

Turning to `CC12NC(=C(C#N)C#N)C(C#N)=C3NC(N)=C(C#N)C(=C31)Oc1ccccc12` (configuration not stated), the TGI in experiment [1] is over 100 µM; in experiment [2], over 74.9 µM; in experiment [3] it was over 100 µM; in [4] it was over 100 µM; in [5] it was over 100 µM; in experiment [6], over 24.9 µM. Also, the TGI in experiment [7] is over 100 µM; in experiment [8], over 88.6 µM; in experiment [9] it was over 80.9 µM; in experiment [10], over 100 µM; in experiment [11] it was over 100 µM; in [12] it was over 100 µM.

For `Oc1ccc(-c2c3ccccc3c(-c3ccc(O)cc3)c3ccccc23)cc1`, the TGI in [1], in [2], in [3], in experiment [4], in [5] and in experiment [6] was over 100 µM in each case. For the same compound, the TGI in experiment [7], in experiment [8], in experiment [9], in experiment [10], in experiment [11] and in experiment [12] was over 100 µM in each case.

As to `CCN(CC)CC1CCCCN1CC(=O)N1c2cc(Cl)ccc2NC(=O)CC1C` (configuration not stated), the TGI in [1], in [2], in experiment [3], in [4], in [5] and in [6] was over 100 µM each time. Also, the TGI in [7], in experiment [8], in experiment [9], in [10], in experiment [11] and in experiment [12] was over 100 µM each time.

Consider `Cc1ccc(S(=O)(=O)N(CC(O)COc2ccccc2)c2c(F)c(F)cc(F)c2F)cc1` (configuration not stated), for which the TGI in experiment [1] amounted to 53.5 µM; in experiment [2], 19.7 µM; in [3], 61.5 µM; in experiment [4], 43.2 µM; in [5], 35.3 µM; in experiment [6], 54.1 µM. For the same compound, the TGI in experiment [7] amounted to 41.4 µM; in [8], 36 µM; in experiment [9] it was 31.3 µM; in [10] it was 36.8 µM; in experiment [11] it was 49.9 µM; in experiment [12] it was 42.6 µM.

`O=C1CC(c2ccc(Cl)cc2)C2(C(=O)NC(=S)NC2=O)C(c2ccc(Cl)cc2)C1` (configuration not stated): the TGI is 43.3 µM in [1]; 57.2 µM in experiment [2]; 44.7 µM in experiment [3]; 39 µM in experiment [4]; 30.5 µM in experiment [5]; 33.9 µM in [6]. Besides, the TGI was 51.2 µM in experiment [7]; 40.9 µM in [8]; 36.1 µM in experiment [9]; 30.6 µM in experiment [10]; 40.6 µM in experiment [11]; 30.2 µM in [12].

On to `Cc1cccc2c(N)c3cccc(C(=O)NCC[N+](C)(C)Cc4ccc([N+](=O)[O-])n4C)c3nc12`, for which the TGI in experiment [1] is 55.8 µM; in experiment [2], 29.2 µM; in [3], over 69.6 µM; in experiment [4], over 65.1 µM; in experiment [5] it was over 46.6 µM; in experiment [6], over 73.1 µM. Besides, the TGI in experiment [7] was 52.5 µM; in experiment [8], 52.5 µM; in experiment [9], over 100 µM; in experiment [10], over 100 µM; in experiment [11], over 57.3 µM; in [12], 43.2 µM.

For `c1ccc2c(c1)nnn2CNc1ccc(N2CCCCC2)cc1`, the TGI in [1], in [2], in experiment [3], in experiment [4], in experiment [5] and in experiment [6] was over 100 µM each time. Further, the TGI in experiment [7], in experiment [8], in [9], in experiment [10], in experiment [11] and in [12] was over 100 µM throughout.

`COc1ccccc1-n1cnc2c1NC(C)(C)N=C2C(N)=O`: the TGI in experiment [1], in experiment [2], in experiment [3], in [4], in experiment [5] and in experiment [6] was over 100 µM throughout. The TGI in [7], in [8], in experiment [9], in [10], in experiment [11] and in experiment [12] was over 100 µM in each case.

`Oc1cc(O)c2c(c1)O[C@H](c1ccc(O)c(O)c1)[C@@H](O)C2`: the TGI in [1], in experiment [2], in experiment [3], in experiment [4], in experiment [5] and in experiment [6] was over 100 µM each time. In addition, the TGI in experiment [7], in [8], in experiment [9], in experiment [10], in experiment [11] and in [12] was over 100 µM in each case.
